From ChEMBL document CHEMBL1144379, “The development of monocyclic pyrazolone based cytokine synthesis inhibitors” (Bioorg Med Chem Lett, 2005)
In brackets after ≈: the same amount, converted by molar mass.

system: not listed separately; experiment: Bioavailability in rat; assay type: ADME, organism-based; conditions: in vivo

| Compound | bioavailability [%] |
| --- | --- |
| C[C@H](Nc1nccc(-c2c(-c3ccc(F)cc3)c(=O)n(C)n2C)n1)c1ccccc1 | 32 |
| COC[C@@H](C)Nc1nccc(-c2c(-c3ccc(F)cc3)c(=O)n(C)n2C2CCNCC2)n1.O=C(O)C(F)(F)F | 15 |
| C[C@H](Nc1nccc(-c2c(-c3ccc(F)cc3)c(=O)n(C3CCNCC3)n2C)n1)c1ccccc1.O=C(O)C(F)(F)F | 17 |

system: not listed separately; experiment: Metabolism measured as percent loss at 4 hours in rat hepatocytes; assay type: ADME, cell-based, Hepatocyte; conditions: read-out: Metabolism

| Compound | metabolised at 4 h [%] |
| --- | --- |
| C[C@H](Nc1nccc(-c2c(-c3ccc(F)cc3)c(=O)n(C)n2C)n1)c1ccccc1 | 44 |
| COCCn1c(-c2ccnc(N[C@@H](C)c3ccccc3)n2)c(-c2ccc(F)cc2)c(=O)n1C | 30 |
| COC[C@@H](C)Nc1nccc(-c2c(-c3ccc(F)cc3)c(=O)n(C)n2C2CCNCC2)n1.O=C(O)C(F)(F)F | 0 |
| C[C@H](Nc1nccc(-c2c(-c3ccc(F)cc3)c(=O)n(C3CCNCC3)n2C)n1)c1ccccc1.O=C(O)C(F)(F)F | 32 |

system: not listed separately; experiment: Aqueous solubility […]; assay type: physicochemical, Rattus norvegicus; conditions: aqueous medium

| Compound | solubility [µg/mL] |
| --- | --- |
| C[C@H](Nc1nccc(-c2c(-c3ccc(F)cc3)c(=O)n(C)n2C)n1)c1ccccc1 | 123 (≈ 305 µM) |
| COCCn1c(-c2ccnc(N[C@@H](C)c3ccccc3)n2)c(-c2ccc(F)cc2)c(=O)n1C | 429 (≈ 959 µM) |
| COC[C@@H](C)Nc1nccc(-c2c(-c3ccc(F)cc3)c(=O)n(C)n2C2CCNCC2)n1.O=C(O)C(F)(F)F | > 30000 |
| C[C@H](Nc1nccc(-c2c(-c3ccc(F)cc3)c(=O)n(C3CCNCC3)n2C)n1)c1ccccc1.O=C(O)C(F)(F)F | 650 |

system: not listed separately; experiment: Half life in rats; assay type: ADME; conditions: rat, in vivo

| Compound | half-life [h] |
| --- | --- |
| C[C@H](Nc1nccc(-c2c(-c3ccc(F)cc3)c(=O)n(C)n2C)n1)c1ccccc1 | 1.1 |
| COC[C@@H](C)Nc1nccc(-c2c(-c3ccc(F)cc3)c(=O)n(C)n2C2CCNCC2)n1.O=C(O)C(F)(F)F | 2.2 |
| C[C@H](Nc1nccc(-c2c(-c3ccc(F)cc3)c(=O)n(C3CCNCC3)n2C)n1)c1ccccc1.O=C(O)C(F)(F)F | 3.2 |

system: THP-1; experiment: Inhibitory activity against lipopolysaccharide stimulated TNF-alpha production in THP-1 cells (human monocytic cells); assay type: functional, cell-based; conditions: not given

| Compound | IC50 [µM] |
| --- | --- |
| C[C@H](Nc1nccc(-c2c(-c3ccc(F)cc3)c(=O)n(C)n2C)n1)c1ccccc1 | 0.013 |
| Cn1c(=O)c(-c2ccc(F)cc2)c(-c2ccnc(Oc3ccccc3)n2)n1C1CCNCC1 | 2.65 |
| C[C@H](Nc1nccc(-c2c(-c3ccc(F)cc3)c(=O)n(C)n2C)n1)c1ccncc1 | > 5 |
| COCCn1c(-c2ccnc(Oc3ccccc3)n2)c(-c2ccc(F)cc2)c(=O)n1C | 1.43 |
| C[C@H](Nc1nccc(-c2c(-c3ccc(F)cc3)c(=O)n(C)n2C)n1)c1cccnc1 | 0.647 |
| C[C@H](Nc1nccc(-c2c(-c3ccc(F)cc3)c(=O)n(C)n2C2CCNCC2)n1)c1ccccc1 | 0.155 |
| COCCn1c(-c2ccnc(N[C@@H](C)c3ccccc3)n2)c(-c2ccc(F)cc2)c(=O)n1C | 0.309 |
| COC[C@@H](C)Nc1nccc(-c2c(-c3ccc(F)cc3)c(=O)n(C)n2C2CCNCC2)n1.O=C(O)C(F)(F)F | 0.075 |
| C[C@H](Nc1nccc(-c2c(-c3ccc(F)cc3)c(=O)n(C)n2C)n1)C(C)(C)O | 3.97 |
| C[C@H](Nc1nccc(-c2c(-c3ccc(F)cc3)c(=O)n(C3CCNCC3)n2C)n1)c1ccccc1.O=C(O)C(F)(F)F | 0.032 |
| CCn1c(-c2ccnc(N[C@@H](C)c3ccccc3)n2)c(-c2ccc(F)cc2)c(=O)n1CC | 0.12 |
| C[C@H](Nc1nccc(-c2c(-c3ccc(F)cc3)c(=O)n(C3CCNCC3)n2C)n1)C(C)(C)O | 1.08 |
| C[C@H](Nc1nccc(-c2c(-c3ccc(F)cc3)c(=O)n(C3CCN(C)CC3)n2C)n1)c1ccccc1 | 0.015 |
| Cn1c(-c2ccnc(Oc3ccccc3)n2)c(-c2ccc(F)cc2)c(=O)n1C | 0.288 |
| C[C@H](Nc1nccc(-c2c(-c3ccc(F)cc3)c(=O)n(C)n2C)n1)c1ccccn1 | 1.43 |
| COC[C@H](C)Nc1nccc(-c2c(-c3ccc(F)cc3)c(=O)n(C)n2C)n1 | 1.43 |
| Cn1c(-c2ccnc(Oc3ccccc3)n2)c(-c2ccc(F)cc2)c(=O)n1C1CCNCC1 | 1.81 |
| CC(=O)N1CCC(n2c(=O)c(-c3ccc(F)cc3)c(-c3ccnc(N[C@@H](C)c4ccccc4)n3)n2C)CC1 | 0.014 |
| COCCn1c(-c2ccnc(N[C@H](C)COC)n2)c(-c2ccc(F)cc2)c(=O)n1C | 0.924 |
| CC[C@H](C)Nc1nccc(-c2c(-c3ccc(F)cc3)c(=O)n(C)n2C)n1 | 0.041 |
| CCOCn1nc(-c2ccncc2)c(-c2ccc(F)cc2)n1 | 1.07 |
| COC[C@H](C)Nc1nccc(-c2c(-c3ccc(F)cc3)c(=O)n(C3CCNCC3)n2C)n1 | 0.261 |
| O=c1c(-c2ccc(F)cc2)c(-c2ccncc2)[nH]n1-c1ccc(Cl)cc1 | 4.22 |

molecular target: not listed separately; experiment: Inhibition of Mitogen-activated protein kinase p38 alpha; conditions: not given

| Compound | IC50 [µM] |
| --- | --- |
| CCOCn1nc(-c2ccncc2)c(-c2ccc(F)cc2)n1 | 2.43 |
